Test results from PMC10223284, “Category-Based Toxicokinetic Evaluations of Data-Poor Per- and Polyfluoroalkyl Substances (PFAS) using Gas Chromatography Coupled with Mass Spectrometry” (Toxics, 2023).
Where two headings read alike, the source gives them in different places.

How the values were obtained:
human plasma [1] = tested on: human plasma
[2] = Abiotic loss in negative controls of the hepatocyte clearance assay (cell-free media, metabolically inactivated hepatocytes); assay type: in vitro ADME
In short: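 Abiotic stability was checked with media-only and inactivated-hepatocyte controls, run at T0 and T240 or, on rerun, at more time points. Compound at 1 μM, 37 °C, acetonitrile quench. Loss rates served for background subtraction, and ≥50% loss by T120 meant exclusion.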

human plasma [3] = conditions: for PPB_Stab_Fail / % remaining_PPB: plasma
in vitro = conditions: both, human, plasma
[4] = flag for stability failure in hepatocyte clearance assay controls (1 or Fst = fail, 0 = pass)

SMILES	Aqueous Fraction, Run-specific Avg (human plasma [1]; both, human, 5 h, 10 μM)	Fup.Med (human plasma [1]; both, human, 5 h, 10 μM)	Fup.point (human plasma [1]; both, human, 5 h, 10 μM)	Hep_Stab_Fail ([2]; both, human, 120 min, 1 μM)	Unstable (human plasma [3])	Time 1 hr, Run-specific Avg (human plasma [3]; both, human, 1 h, 10 μM)	Fstable.Med (human plasma [3]; both, human, 5 h, 10 μM)	Mean Stability (human plasma [3]; both, human, 5 h, 10 μM)	Stability (T5hr/ T1hr), Run-specific Avg (human plasma [3]; both, human, 5 h, 10 μM)	Time 5 hr, Run-specific Avg (human plasma [3]; both, human, 5 h, 10 μM)	PPB_Stab_Fail (human plasma [3]; both, human, 5 h, 10 μM)	fraction unbound at 5 h, 10 μM (in vitro; Fraction Unbound (fu), Run-specific Avg)	fraction unbound at 5 h, 10 μM (in vitro; Mean Fu)	Fup.Med (human plasma [1])	Fup.point (human plasma [1])	Hep_Stab_Fail [2, 4]	Fstable.Med (human plasma [3])	% remaining_PPB (human plasma [3]; human)	PPB_Stab_Fail (human plasma [3]; human)	Mean fu (human plasma [1]; human, plasma)
COC(=O)C(F)(F)C(F)(F)OC(F)(C(F)(F)F)C(F)(F)OC(F)=C(F)F (stereo not shown) [Methyl perfluoro(3-(1-ethenyloxypropan-2-yloxy)propanoate)]	200.27	0.0161	0.0235	1	Y	11859.81	0.224	0.836	0.726	8614.65	1	0.0232	0.023	–	–	–	–	–	–	–
C=C(C)C(=O)OCC(F)(F)C(F)(F)C(F)(F)F [1H,1H-Perfluorobutyl methacrylate]	–	–	–	–	Y	–	–	–	–	–	–	–	–	0.716	0.706	1	0.0018	8%	1	–
C=C(C)C(=O)OCCC(F)(F)C(F)(F)C(F)(F)C(F)(F)C(F)(F)C(F)(F)C(F)(F)C(F)(F)F [8:2 Fluorotelomer methacrylate]	–	–	–	–	Y	–	–	–	–	–	–	–	–	0.0461	0.0503	1	0.0797	66%	0	0.09
